≈ marks a conversion by molar mass, not a printed value.
Experiments:
[1] = tested on: wild type SARS-CoV-2 pseudovirion; assay: microbe, parasite or virus in culture; format: cell-based; details: Severe acute respiratory syndrome coronavirus 2, read-out: EC50 % Inhibition (μg/mL)
[2] = tested on: SARS-CoV2 (Caco2); assay: microbe, parasite or virus in culture; details: Severe acute respiratory syndrome coronavirus 2, Caco-2, 72 h
[3] = Cytotoxicity assay measuring cell proliferation in PBM cells; format: cell-based; details: remdesivir
Protocol: Numbers in parentheses indicate percent inhibition at the highest concentration tested. Cytotoxicity assays measuring the cell proliferation in PBM and Vero cells were performed in parallel to the antiviral assays.

[4] = tested on: SARS-CoV2 (Calu3); assay: microbe, parasite or virus in culture; format: cell-based, SARS-CoV-2; details: Severe acute respiratory syndrome coronavirus 2, Calu-3, 72 h
[5] = tested on: SARS-CoV2 (Vero); assay: microbe, parasite or virus in culture; format: cell-based, SARS-CoV-2; details: Severe acute respiratory syndrome coronavirus 2, Vero, 48 h

Structure (SMILES)	EC50 [1] [µg/mL]	EC50 ([2]; read-out: Anti-SARS-CoV2 (Caco2) EC50) [nM]	EC90 ([2]; read-out: Anti-SARS-CoV2 (Caco2) EC90) [nM]	CC50 [3] [nM]	EC50 ([4]; read-out: Anti-SARS-CoV2 (Calu3) EC50) [nM]	EC90 ([4]; read-out: Anti-SARS-CoV2 (Calu3) EC90) [nM]	EC50 ([5]; read-out: Anti-SARS-CoV2 (Vero) EC50) [nM]	EC90 ([5]; read-out: Anti-SARS-CoV2 (Vero) EC90) [nM]
CCN(CCO)CCCC(C)Nc1ccnc2cc(Cl)ccc12 (centres unmarked) [Hydroxy cholorquine]	1.14 (≈ 3.39 µM)	–	–	–	–	–	–	–
CCC(CC)COC(=O)[C@H](C)N[P@](=O)(OC[C@H]1O[C@@](C#N)(c2ccc3c(N)ncnn23)[C@H](O)[C@@H]1O)Oc1ccccc1 [Remdesivir]	–	100	400	1200	2	20	600	1600

From patent US20250288632A1, “Viral Entry Inhibitors Derived From Botanicals” (priority 2022, published 2025)
